Data reported in US12728121B2, “Compositions and methods for treating idiopathic pulmonary fibrosis” (Seyltx, Inc., priority 2019, dated 2026).

Legend:
Assay type in all cases: in vivo, Mouse/C57BL/6
BLM-induced fibrosis [1] = experiment: Bleomycin (BLM)-induced lung fibrosis in mice: Gomori's Trichrome score of lung sections; settings: for Trichrome score (average) / % reduction in fibrosis: day 21; for Trichrome score (average): BLM 2.5 U/kg intratracheal, p.o. once daily 14 days from day 7, mg/kg: Pirfenidone 300, Bromantane 20, Ifenoprodil 30, Radiprodil 30, Bemithyl 200, Dexamethasone 0.25, Repirinast 90, Normal 1.00, Vehicle 4.59; for Trichrome score response versus BLM-vehicle group (in words) / percent reduction in lung fibrosis in comparison to the BLM-vehicle group (in words): doses as Table 1, order: Dexamethasone and Repirinast, followed by Ifenprodil and Radiprodil; for % reduction in fibrosis: from Trichrome scores relative to vehicle and normal groups, doses as Table 1, p.o. once daily 14 days; for improvement in lung fibrosis, loss of body weight, Trichrome score and mortality as compared to BLM-vehicle (conclusion, in words): oral administration, Dexamethasone 0.25, Repirinast 90, Ifenprodil 30, Radiprodil 30 mg/kg
Protocol: (§1) The mouse species or strain was Mouse/C57BL/6, the mice being 8-10 week old males. Nine groups of 10 mice each were obtained from Charles River Laboratories. Each group was randomized based on body weight. Bleomycin (BLM) was obtained from Euroasias.
(§2) The mice were anesthetized with isoflurane/O2 mixture. Bleomycin (BLM) was then administered to the mice intratracheally (PennCentury)—single bolus, at 2.5 U/kg body weight in 50 μl sterile saline.
(§3) Seven days after the bleomycin is administered, and fibroblasts have generally proliferated, six of the nine groups of IT bleomycin challenged mice were be dosed orally (p.o.) once a day with Bromantane, Ifenoprodil, Radiprodil, Bemithyl, Dexamethasone, or Repirinast at specified amounts per kg of body weight (mg/kg) daily for 14 consecutive days. The amounts are set out in Table 1 below. The vehicle used was 0.5% carboxymethyl cellulose (CMC). Prifenidone was also prepared in 0.5% CMC and administrated orally once a day to one of the nine IT bleomycin challenged mice groups beginning for 14 consecutive days. Vehicle and no-BLM control groups received 0.5% CMC orally for 14 consecutive days.
On day 21 of the study, 4 hours after the last dose, the mice were sacrificed and plasma was collected and frozen for cytokine analysis (testing for IL-6, IL-12, TGFβ, IL-13 proteins, or fibrosis markers). Bronchoalveolar lavage fluid (BALF) was collected and frozen for optional cytokine analyses and cell counts pending the initial data. The lungs were then excised, weighed and fixed in formalin. Gomori's Trichrome stain, a histological stain, was used to determine collagen content.
Trichrome Score: A trichrome score measures the level of scarring to the lungs caused by the disease. The greater the trichrome score, the greater the scarring.
Formalin fixed lung samples were submitted to affiliated histopathology laboratory for histopathological analysis subjected Gomori's Trichrome stain, a histological stain, which was used to determine collagen content.
Each lung was divided into ten sections. All ten sections were stained and evaluated. A board certified veterinarian pathologist assessed the presence of lung fibrosis and severity score—The expression of collagen (associated with fibrosis) is determined from the ratio of the stained area versus the total area of the lung section.

BLM-induced fibrosis [2] = experiment: Bleomycin (BLM)-induced lung fibrosis in mice: mortality rate over 21 days; settings: doses as Table 1; for Fatality Number: deaths/mice per group over 21 days, Vehicle 2/10; for percent survival (in words): order: Dexamethasone and Repirinast, followed by Ifenprodil and Radiprodil; for Percent Fatality: over 21 days, Vehicle 20%
Protocol: as §1, §2, §3
Mortality Rate: the mortality rate in each group was also observed over 21 days.

[3] = Bleomycin (BLM)-induced lung fibrosis in mice: body weight over 21 days; settings: for Percent Change in Body Weight / Body Weight: doses as Table 1; for Body Weight: group mean; for changes in body weight as compared to the BLM-vehicle group (in words): doses as Table 1, p.o. once daily
Protocol: as §1, §2, §3
Body Weight: The body weights were measured over 21 days using a laboratory balance.

Row | SMILES | Trichrome score (average) (BLM-induced fibrosis [1]) | Trichrome score response versus BLM-vehicle group (in words) (BLM-induced fibrosis [1]) | % reduction in fibrosis (BLM-induced fibrosis [1]) [%] | Fatality Number (BLM-induced fibrosis [2]) | Percent Fatality (BLM-induced fibrosis [2]) [%] | Percent Change in Body Weight ([3]; 7-Nov) [%] | Body Weight ([3]; 7-Nov) [g] | Percent Change in Body Weight ([3]; 8-Nov) [%] | Body Weight ([3]; 8-Nov) [g] | Percent Change in Body Weight ([3]; 9-Nov) [%] | Body Weight ([3]; 9-Nov) [g] | Percent Change in Body Weight ([3]; 12-Nov) [%] | Body Weight ([3]; 12-Nov) [g] | Percent Change in Body Weight ([3]; 14-Nov) [%] | Body Weight ([3]; 14-Nov) [g] | Percent Change in Body Weight ([3]; 16-Nov) [%] | Body Weight ([3]; 16-Nov) [g] | Percent Change in Body Weight ([3]; 20-Nov) [%] | Body Weight ([3]; 20-Nov) [g] | Percent Change in Body Weight ([3]; 22-Nov) [%] | further results
1 | C[C@@H]([C@H](O)c1ccc(O)cc1)N1CCC(Cc2ccccc2)CC1 (stereo in doubt) [Ifenoprodil, 4-[2-(4-benzylpiperidin-1-ium-1-yl)-1-hydroxypropyl] phenol; 2,3,4-trihydroxy-4-oxobutanoate] | 3.37 | response was better | 34.0 | 0/10 | 0 | 0.0 | 24.4 | −0.1 | 24.3 | −0.3 | 24.1 | −2.0 | 22.4 | −1.3 | 23.1 | −0.8 | 23.6 | −0.3 | 24.1 | 0.5 | percent reduction in lung fibrosis in comparison to the BLM-vehicle group (in words) (BLM-induced fibrosis [1]): higher; improvement in lung fibrosis, loss of body weight, Trichrome score and mortality as compared to BLM-vehicle (conclusion, in words) (BLM-induced fibrosis [1]): showed improvement; percent survival (in words) (BLM-induced fibrosis [2]): higher; Body Weight ([3]; 22-Nov): 24.9 g; Percent Change in Body Weight ([3]; 26-Nov): 0.2%; Body Weight ([3]; 26-Nov): 24.6 g; Percent Change in Body Weight ([3]; 28-Nov): 0.7%; Body Weight ([3]; 28-Nov): 25.1 g; changes in body weight as compared to the BLM-vehicle group (in words) [3]: showed improvement beginning on Day 5
2 | O=C(Nc1ccc2[nH]c(=O)oc2c1)C(=O)N1CCC(Cc2ccc(F)cc2)CC1 [Radiprodil, 2-[4-[(4-fluorophenyl)methyl]piperidin-1-yl]-2-oxo-N-(2-oxo-3H-1,3-benzoxazol-6-yl)acetamide] | 3.45 | response was better | 31.8 | 2/10 | 20 | 0.0 | 23.6 | 0.0 | 23.6 | −0.4 | 23.2 | −2.3 | 21.3 | −1.8 | 21.8 | −1.0 | 22.6 | −1.2 | 22.4 | −0.3 | percent reduction in lung fibrosis in comparison to the BLM-vehicle group (in words) (BLM-induced fibrosis [1]): higher; improvement in lung fibrosis, loss of body weight, Trichrome score and mortality as compared to BLM-vehicle (conclusion, in words) (BLM-induced fibrosis [1]): showed improvement; percent survival (in words) (BLM-induced fibrosis [2]): higher; Body Weight ([3]; 22-Nov): 23.3 g; Percent Change in Body Weight ([3]; 26-Nov): 0.3%; Body Weight ([3]; 26-Nov): 24.0 g; Percent Change in Body Weight ([3]; 28-Nov): 0.4%; Body Weight ([3]; 28-Nov): 24.0 g; changes in body weight as compared to the BLM-vehicle group (in words) [3]: showed improvement beginning on Day 5
3 | C[C@@H]1C[C@H]2[C@@H]3CCC4=CC(=O)C=C[C@]4(C)[C@@]3(F)[C@@H](O)C[C@]2(C)[C@@]1(O)C(=O)CO [Dexamethasone] | 2.45 | response was better | 59.6 | 2/10 | 20 | 0.0 | 24.3 | −0.2 | 24.1 | −0.6 | 23.7 | −1.9 | 22.4 | −1.6 | 22.7 | −0.9 | 23.4 | −1.5 | 22.7 | −0.1 | percent reduction in lung fibrosis in comparison to the BLM-vehicle group (in words) (BLM-induced fibrosis [1]): higher; improvement in lung fibrosis, loss of body weight, Trichrome score and mortality as compared to BLM-vehicle (conclusion, in words) (BLM-induced fibrosis [1]): showed improvement; percent survival (in words) (BLM-induced fibrosis [2]): higher; Body Weight ([3]; 22-Nov): 24.2 g; Percent Change in Body Weight ([3]; 26-Nov): 0.3%; Body Weight ([3]; 26-Nov): 24.5 g; Percent Change in Body Weight ([3]; 28-Nov): 0.7%; Body Weight ([3]; 28-Nov): 25.0 g; changes in body weight as compared to the BLM-vehicle group (in words) [3]: showed improvement beginning on Day 5
4 | Cc1ccc(=O)n(-c2ccccc2)c1 [Pirfenidone (+), 5-methyl-1-phenylpyridin-2(1H)-one] | 4.09 | minimal improvement | 13.9 | 2/10 | 20 | 0.0 | 24.0 | 0.3 | 24.2 | −0.5 | 23.5 | −2.2 | 21.7 | −2.9 | 21.0 | −3.2 | 20.8 | −3.7 | 20.3 | −2.9 | Body Weight ([3]; 22-Nov): 21.1 g; Percent Change in Body Weight ([3]; 26-Nov): −3.1%; Body Weight ([3]; 26-Nov): 20.9 g; Percent Change in Body Weight ([3]; 28-Nov): −3.2%; Body Weight ([3]; 28-Nov): 20.7 g
